Paper PMC11451537, “P2X7 receptors exhibit at least three modes of allosteric antagonism” (Science Advances, 2024)
Like-named read-outs stand apart in the source and are kept apart here.

What was measured:
rP2X7 = target: T1, rP2X7 (Rattus norvegicus, UniProt Q64663); assay: Bio-layer interferometry (BLI), biotinylated rP2X7 on streptavidin biosensors, 2:1 Langmuir fit; format: binding; conditions: for kon: pH 7.4, 2:1 Langmuir model, 600-s association
T1 sequence (Q64663 1-595): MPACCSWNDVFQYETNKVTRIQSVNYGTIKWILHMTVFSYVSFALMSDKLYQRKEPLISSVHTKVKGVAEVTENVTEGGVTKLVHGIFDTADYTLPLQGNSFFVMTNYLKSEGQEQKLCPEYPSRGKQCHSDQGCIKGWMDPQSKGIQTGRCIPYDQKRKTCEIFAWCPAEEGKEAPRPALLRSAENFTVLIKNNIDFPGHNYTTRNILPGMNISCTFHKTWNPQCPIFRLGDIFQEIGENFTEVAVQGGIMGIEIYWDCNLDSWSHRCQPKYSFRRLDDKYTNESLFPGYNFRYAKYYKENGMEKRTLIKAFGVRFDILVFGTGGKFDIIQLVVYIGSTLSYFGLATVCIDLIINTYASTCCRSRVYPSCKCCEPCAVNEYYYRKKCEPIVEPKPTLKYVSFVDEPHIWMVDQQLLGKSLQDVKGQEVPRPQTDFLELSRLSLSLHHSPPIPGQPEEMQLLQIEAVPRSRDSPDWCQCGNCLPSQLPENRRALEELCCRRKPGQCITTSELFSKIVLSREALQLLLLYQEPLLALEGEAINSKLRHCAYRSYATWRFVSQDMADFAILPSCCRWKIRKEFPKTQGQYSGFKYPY
Procedure: Using a HiTrap desalting column (Cytiva), 1 ml of diluted purified rP2X7 was desalted into PBS buffer (pH 7.4). Protein-containing fractions were combined and concentrated before adjusting the pH to 8.0 with NaHCO3. NHS-PEG12-Biotin (Thermo Fisher Scientific) was added and incubated at 23°C for 60 min while shaking. PBS was used to dilute the biotinylated sample before four cycles of dilution and concentration to ensure the removal of free NHS-PEG12-Biotin via a 100-kDa concentrator (Millipore Sigma). After the final cycle, the absorbance at 280 nm of the concentrated sample was taken to quantify the amount of biotinylated rP2X7.
A ForteBio Octet RED384 instrument with ForteBio Data Acquisition software 11.0 was used to carry out BLI experiments. The assays were performed at 30°C using 384-well tilted-bottom plates (Sartorius) while orbital shaking at 1000 RPM. Running buffer consisting of filtered (0.22 μm) PBS (pH 7.4) with 0.5 mM DDM (Anatrace). Streptavidin (SA) biosensor tips (Sartorius) were pre-equilibrated in running buffer for 20 min and loaded with 50 μg ml^−1 of biotinylated rP2X7 ligand or biocytin (Sigma-Aldrich) control for 1800s. Blocking of the loaded SA sensors using 100 μg ml^−1 of biocytin was then initiated for 150 s before washing with a running buffer for 60 s. A baseline of loaded sensors was taken in the running buffer for 120 s before dipping them into wells containing ligand dilutions (0.37 to 10 μM for methyl blue) for 600 s, and then returning the sensors to the running buffer for a 600-s disassociation step. Rate constants for association and disassociation were determined using ForteBio Data Analysis HT 11.0 evaluation software. The raw data were double reference subtracted for maximal signal between the large ligand and small analyte. Biocytin controls were the first subtraction across analyte concentrations, and the zero-analyte concentration was the second. The association rate constant (ka) and the dissociation rate constant (kd) were calculated for each interaction pair using an average of three independent assays containing at least four different concentrations that were globally fit to a 2:1 Langmuir binding model. Equilibrium dissociation constants (KD) were calculated as the ratio of kd to ka. The KD1, KD2, ka1, ka2, kd1, and kd2 values are reported as the average ± the SD of three replicate datasets for each analyte, with each dataset using at least four independent traces. The analyzed data were exported and plotted in GraphPad Prism 9.0.

hP2X7 = target: T2, hP2X7 (Homo sapiens, UniProt Q99572); assay: TEVC inhibition dose-response (IC50), hP2X7 in Xenopus laevis oocytes; format: cell-based; design: hP2X4-WT, and hP2X7-WT constructs used for electrophysiology are similarly unmodified full-length, wild-type receptor constructs; expressed in transfected cells; host or cells: Xenopus laevis oocytes injected with mRNA made from pcDNA3.1x; conditions: 100 μM ATP, mean ± SD, triplicate
T2 sequence (Q99572 1-595): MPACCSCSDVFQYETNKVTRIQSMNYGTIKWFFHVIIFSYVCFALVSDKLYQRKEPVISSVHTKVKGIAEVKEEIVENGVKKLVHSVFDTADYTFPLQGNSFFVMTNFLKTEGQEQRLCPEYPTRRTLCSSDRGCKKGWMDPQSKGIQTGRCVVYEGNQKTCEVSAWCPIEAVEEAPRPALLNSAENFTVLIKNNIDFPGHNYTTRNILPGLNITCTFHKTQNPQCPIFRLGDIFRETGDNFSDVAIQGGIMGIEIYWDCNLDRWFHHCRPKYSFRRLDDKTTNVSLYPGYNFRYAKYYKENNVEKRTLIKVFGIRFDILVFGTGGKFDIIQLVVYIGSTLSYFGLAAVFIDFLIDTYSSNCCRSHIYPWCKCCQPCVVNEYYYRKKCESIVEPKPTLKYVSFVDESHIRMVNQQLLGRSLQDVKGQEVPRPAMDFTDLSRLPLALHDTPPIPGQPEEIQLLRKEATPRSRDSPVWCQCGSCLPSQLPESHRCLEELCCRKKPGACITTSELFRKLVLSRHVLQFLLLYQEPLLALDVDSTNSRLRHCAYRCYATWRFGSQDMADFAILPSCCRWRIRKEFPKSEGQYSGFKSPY
Source text: To evaluate the inhibitory response of an antagonist for a dilution series, an initial excitatory signal was evoked at a subtype-specific concentration of ATP. Next, the antagonist was applied at a test concentration for 60 s and then coapplied at the same test concentration of the antagonist with the identical subtype-specific concentration of ATP. The antagonized signal was then normalized against the preceding excitatory signal evoked by ATP for each individual oocyte tested. The pre- and post-antagonist signals were evoked by 10 μM ATP for hP2X1, 10 μM ATP for hP2X2, 1 μM ATP for hP2X3, 50 μM ATP for hP2X4, and 100 μM ATP for P2X7. For the K297V mutation in rP2X7, pre- and post-antagonist signals were evoked by 300 μM ATP. Each dataset was then fit to a nonlinear regression named “[inhibitor] vs. response – Variable slope (four parameters)” in GraphPad Prism 9 to produce a sigmoidal curve and afford an IC50 value. Each singular condition was used to generate an average which is reported plus or minus its SD between three discrete trials.

[1] = 2:1 Langmuir model, 600-s dissociation

O=S(=O)(O)c1ccc(N=C2C=CC(=C(c3ccc(Nc4ccc(S(=O)(=O)O)cc4)cc3)c3ccc(Nc4ccc(S(=O)(=O)O)cc4)cc3)C=C2)cc1 [methyl blue]
share of signal of the high-affinity component (KD1) (rP2X7; 2:1 Langmuir model): 67 ± 8%
share of signal of the low-affinity component (KD2) (rP2X7; 2:1 Langmuir model): 33 ± 8%
Kd (rP2X7; 2:1 Langmuir model, 30°C, PBS pH 7.4 with 0.5 mM DDM, ratio of kd to ka, read-out: KD1 (high-affinity binding component)): 0.26 ± 0.13 µM
rate constant for dissociation kd1 (rP2X7; [1]): 1.1 ± 0.5 × 10^−4 s^−1
rate constant for dissociation kd2 (rP2X7; [1]): 1.3 ± 0.1 × 10^−2 s^−1
kon (rP2X7; read-out: rate constant for association ka1): 450 ± 2000 M⁻¹ s⁻¹
kon (rP2X7; read-out: rate constant for association ka2): 9300 ± 2.3e+06 M⁻¹ s⁻¹
Kd (rP2X7; read-out: KD2 (low-affinity binding component), 2:1 Langmuir model, 30°C, PBS pH 7.4 with 0.5 mM DDM, ratio of kd to ka): 1.5 ± 0.2 µM
IC50 (hP2X7): 4 ± 2 µM
